According to patent US20050070508A1, “Napthalene carboxamides and their derivatives useful as new anti-angiogenic agents” (AGOURON PHARMACEUTICALS, INC., priority 2003, published 2005):

Assays:
[1] = target: T1, human vascular endothelial growth factor receptor 2 (VEGF-R2) (Homo sapiens, UniProt P35968, DEL940-989/E990V); assay: VEGF-R2 coupled spectrophotometric assay (FLVK); assay type: biochemical; conditions: unphosphorylated VEGF-R2D50 (FLVK)
T1 construct: VEGF-R2D50 contains residues 806-939 and 990-1171; made in house; host or cells: baculovirus/insect cell system
Source text: This construct determines the ability of a test compound to inhibit tyrosine kinase activity. A construct (VEGF-R2D50) of the cytosolic domain of human vascular endothelial growth factor receptor 2 (VEGF-R2) lacking the 50 central residues of the 68 residues of the kinase insert domain was expressed in a baculovirus/insect cell system. Of the 1356 residues of full-length VEGF-R2, VEGF-R2D50 contains residues 806-939 and 990-1171, and also one point mutation (E990V) within the kinase insert domain relative to wild-type VEGF-R2. Autophosphorylation of the purified construct was performed by incubation of the enzyme at a concentration of […] in the presence of 3 mM ATP and 40 mM MgCl2 in 100 mM HEPES, pH 7.5, containing 5% glycerol and 5 mM DTT, at 4° C. for 2 h. […] See Parast et al., Biochemistry, 37, 16788-16801 (1998).
The production of ADP from ATP that accompanies phosphoryl transfer was coupled to oxidation of NADH using phosphoenolpyruvate (PEP) and a system having pyruvate kinase (PK) and lactic dehydrogenase (LDH). The oxidation of NADH was monitored by following the decrease of absorbance at 340 nm (e340=6.22 cm^−1 mM^−1) using a Beckman DU 650 spectrophotometer. Assay conditions for phosphorylated VEGF-R2D50 (indicated as FLVK-P in the tables below) were the following: 1 mM PEP; […]; 50 units of LDH/mL; 20 units of PK/mL; 5 mM DTT; 5.1 mM poly(E4Y1); 1 mM ATP; and 25 mM MgCl2 in 200 mM HEPES, pH 7.5. Assay conditions for unphosphorylated VEGF-R2D50 (indicated as FLVK in the tables) were the following: 1 mM PEP; […]; 50 units of LDH/mL; 20 units of PK/mL; 5 mM DTT; 20 mM poly(E4Y1); 3 mM ATP; and 60 mM MgCl2 and 2 mM MnCl2 in 200 mM HEPES, pH 7.5. Assays were initiated with 5 to 40 nM of enzyme. Ki values were determined by measuring enzyme activity in the presence of varying concentrations of test compounds. The percent inhibition at 50 nm (% inhibition @ 50 nm) was determined by linear least-squares regression analysis of absorbance as a function of time. The binding inhibitions were fitted to equation as described by Morrison. The data were analyzed using Enzyme Kinetic and Kaleidagraph software.

[2] = system: human umbilical vein endothelial cells (HUVEC); assay: HUVEC+VEGF Proliferation Assay; assay type: cell-based; conditions: VEGF-stimulated proliferation, final VEGF 6 ng/mL, 72 hours, MTT dye reduction
Description: This assay determines the ability of a test compound to inhibit the growth factor-stimulated proliferation of human umbilical vein endothelial cells (“HUVEC”). HUVEC cells (passage 3-4, Clonetics, Corp.) were thawed into EGM2 culture medium (Clonetics Corp) in T75 flasks. Fresh EGM2 medium was added to the flasks 24 hours later. Four or five days later, cells were exposed to another culture medium (F12K medium supplemented with 10% fetal bovine serum (FBS), […] endothelial cell growth supplement (ECGS), and 0.1 mg/mL heparin). Exponentially-growing HUVEC cells were used in experiments thereafter. Ten to twelve thousand HUVEC cells were plated in 96-well dishes in […] of rich, culture medium (described above). The cells were allowed to attach for 24 hours in this medium. The medium was then removed by aspiration and […] of starvation media (F12K+1% FBS) was added to each well. After 24 hours, […] of test agent dissolved in 1% DMSO in starvation medium or this vehicle alone was added into each treatment well; the final DMSO concentration was 0.1%. One hour later, […] of VEGF (30 ng/mL) in starvation media was added to all wells except those containing untreated controls; the final VEGF concentration was 6 ng/mL. Cellular proliferation was quantified 72 hours later by MTT dye reduction, at which time cells were exposed for 4 hours MTT (Promega Corp.). Dye reduction was stopped by addition of a stop solution (Promega Corp.) and absorbance at 595 nm was determined on a 96-well spectrophotometer plate reader.

T1 sequence (P35968 with tags, fused parts or gaps DEL940-989/E990V limits assumed): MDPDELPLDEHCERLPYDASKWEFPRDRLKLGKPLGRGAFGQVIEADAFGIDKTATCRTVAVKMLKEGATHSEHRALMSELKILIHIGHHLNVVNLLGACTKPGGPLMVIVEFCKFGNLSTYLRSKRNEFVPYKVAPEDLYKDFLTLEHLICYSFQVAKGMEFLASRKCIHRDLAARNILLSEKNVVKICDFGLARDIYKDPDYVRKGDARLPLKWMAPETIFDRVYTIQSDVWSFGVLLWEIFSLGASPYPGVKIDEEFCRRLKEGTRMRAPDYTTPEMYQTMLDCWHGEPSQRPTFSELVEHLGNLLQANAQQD

Ki [1] [nM] | Structure (SMILES) | IC50 [2] [nM]
1 to 10 | O=C(NCCN1CCOCC1)c1cccc2cc(Oc3ccnc4ccsc34)ccc12 [Example 15, N-(2-Morpholin-4-ylethyl)-6-(thieno[3,2-b]pyridin-7-yloxy)-1-naphthamide] | > 10
< 1 | Cn1ccnc1-c1cc2nccc(Oc3ccc4c(C(=O)NCCN5CCOCC5)cccc4c3)c2s1 [Example 14, 6-{[2-(1-Methyl-1H-imidazol-2-yl)thieno[3,2-b]pyridin-7-yl]oxy}-N-(2-morpholin-4-ylethyl)-1-naphthamide] | 1 to 10
< 1 | CNC(=O)c1cccc2c(F)c(Oc3ccnc4cc(C(=O)N5CC[C@H](OC)C5)sc34)ccc12 [Example 1, 5-Fluoro-6-[(2-{[(3S)-3-methoxypyrrolidin-1-yl]carbonyl}thieno[3,2-b]pyridin-7-yl)oxy]-N-methyl-1-naphthamide] | < 1
< 1 | O=C(Nc1ccc(N2CCOCC2)nc1)c1cccc2cc(Oc3ccnc4ccsc34)ccc12 [Example 35, 6-(Thieno[3,2-b]pyridin-7-yloxy)-naphthalene-1-carboxylic acid (6-morpholin-4-yl-pyridin-3-yl)-amide] | 1 to 10
1 to 10 | CNC(=O)c1cccc2cc(Oc3ccnc4cc(C(=O)N(C)CCCN(C)C)sc34)ccc12 [Example 7, N-[3-(Dimethylamino)propyl]-N-methyl-7-({5-[(methylamino)carbonyl]-2-naphthyl}oxy)thieno[3,2-b]pyridine-2-carboxamide] | > 10
1 to 10 | CCCCNC(=O)c1cccc2cc(Oc3ccnc4cc(OCCN5CCCC5)ccc34)ccc12 [Example 49, 6-[7-(2-Pyrrolidin-1-yl-ethoxy)-quinolin-4-yloxy]-naphthalene-1-carboxylic Acid Butylamide] | 1 to 10
< 1 | CNC(=O)c1cccc2cc(Oc3ccnc4cc(OCCN5CCOCC5)ccc34)ccc12 [Example 45, 6-[7-(2-Morpholin-4-yl-ethoxy)-quinolin-4-yloxy]-naphthalene-1-carboxylic Acid Methylamide] | < 1
1 to 10 | O=C(NCCCN1CCOCC1)c1cccc2cc(Oc3ncnc4ccsc34)ccc12 [Example 42, 6-(Thieno [3,2-d]pyrimidin-4-yloxy)-naphthalene-1-carboxylic acid (3-morpholin-4-yl-propyl)-amide] | > 10

Structure (SMILES) | Ki [1] [nM] | IC50 [2] [nM]
COc1ccc2c(Oc3ccc4c(C(=O)NC5CC5)cccc4c3)ccnc2c1 [Example 51, 6-(7-Methoxy-quinolin-4-yloxy)-naphthalene-1-carboxylic acid cyclopropylamide] | < 1 | 1 to 10
